In publication PMC8587515, “Cytotoxic and Anti-Inflammatory Activities of Dihydroisocoumarin and Xanthone Derivatives from Garcinia picrorhiza” (Molecules, 2021) one finds IC50 data, which are given here for two compounds.

Usually IC50 stands for the concentration that gives 50% inhibition.

The subject of assay [1] is MCF-7 (human breast adenocarcinoma). The experiment in a line: MTT cytotoxic activity assay, MCF-7. The class given is cell-based. To be noted: MCF7, 72 h, mean ± SEM of three replicates. Here is the method:
(§1) The cytotoxic activity of the isolated compounds was evaluated using the MTT viability assay with doxorubicin as the positive control and the results are presented in Table 2.
(§2) The MTT colorimetric method was performed to evaluate cytotoxic activity of the isolated compounds against human epidermoid carcinoma (KB; ATCC CCL17), human cervical carcinoma (HeLa S3; ATCC CCL2-2), human colon adenocarcinoma (HT-29; ATCC HTB-38), human breast adenocarcinoma (MCF-7; ATCC HTB-22), and human hepatocellular carcinoma (Hep G2; ATCC HB-8065) cell lines according to the previous method. […] After centrifugation at 1400 rpm for 5 min at 4 °C, the supernatant was decanted and DMSO (100 µL/well) was added to allow formazan product solubilization, which was subsequently measured by a microplate reader (Tecan Trading AG, Switzerland) at wavelength 550 nm. […] The results are expressed as the mean values of three replicates for three independent experiments. IC50 values were determined by graphical analysis using SigmaPlot 10 (Systat Software Inc., San Jose, CA, USA), obtained by plotting the cell viability percentage versus sample concentration.

Assay [2] deals with four cancer cells (KB, HeLa S3, MCF-7, and Hep G2). The experiment in a line: MTT cytotoxicity, four cancer cells stated together. To be noted: Homo sapiens; range over KB, HeLa S3, MCF-7, Hep G2; read-out: IC50 values against four cancer cells. The class given is cell-based. Here is the method: as §1, §2
The test system of assay [3] is Hep G2 (human hepatocellular carcinoma). In words: MTT cytotoxic activity assay, Hep G2. To be noted: HepG2, 72 h, mean ± SEM of three replicates. The class given is cell-based. Here is the method:
as §1, §2
For orientation: Tetrazolium dyes change colour on reduction, which living cells bring about.

Assay [4] concerns HeLa S3 (human cervical carcinoma). More on the design: method as in PMID 30153471, PMID 33999337. To be noted: MTT; results based on previous work; read-out: IC50 ± SEM, HeLa S3; cited from earlier work.

Consider `C[C@H]1Oc2c(c(O)c3c(=O)c4ccc(O)c(O)c4oc3c2CCC(C)(C)O)C1(C)C` [Compound 4, gerontoxanthone C hydrate], for which the IC50 in assay [1] is 5.7 ± 0.3 µM; in assay [2], 5.6 to 7.5 µM; in assay [3] it was 6.3 ± 0.6 µM.
`C[C@@H]1Oc2cc(O)c3c(=O)c4ccc(O)c(O)c4oc3c2C1(C)C` [Compound 7, 2-deprenylrheediaxanthone B]: the IC50 in assay [4] was 6 ± 0.5 µM.
